Entries after “also recorded” stand apart in the source; their conditions may differ.

Series [1] has as its system SARS-CoV-2. The class given is cell-based.
In series [2] the test system is Vero cell line. In words: Cytotoxicity of herbal extracts on Vero cell line, MTT assay. The note with it: concentration not printed. (Formazan colour is commonly taken as a measure of viable cells.)
Series [3] relates to SARS-CoV-2. The note with it: prophylactic/therapeutic (full-time) setting, at 37° and 4° C., by CPE and RT-PCR; cited from earlier work.

`CCN(CC)CCCC(C)Nc1ccnc2cc(Cl)ccc12` (stereo not drawn) [Chloroquine phosphate]: the “viral load inhibition (increasing Cq value, decreasing percent viral copy number)” value in series [1] (reference drugs: Chloroquine phosphate 9.69 μM/mL, Remdesivir 8.297 μM/mL) is recorded as “viral load inhibition”. In series [1] (viral full entry and post entry treatment points), the “inhibition of SARS-CoV-2” value is recorded as “inhibition of SARS-CoV-2”. For the same compound, the “cytotoxicity / percent inhibition (MTT assay)” value in series [2] is recorded as “non-toxic”; in series [2] (listed as Chloroquine), “no inhibition”.

Regarding `CCC(CC)COC(=O)[C@H](C)N[P@](=O)(OC[C@H]1O[C@@](C#N)(c2ccc3c(N)ncnn23)[C@H](O)[C@@H]1O)Oc1ccccc1` [Remdesivir], the “cytotoxicity / percent inhibition (MTT assay)” value in series [2] is “no inhibition; also recorded: non-toxic”.

On to `CCN(CCO)CCCC(C)Nc1ccnc2cc(Cl)ccc12` (stereo not drawn) [hydroxychloroquine], for which, in series [3], the antiviral activity result was “significant antiviral activity”.
